From patent US7622446B2, “Polypeptides, derivatives and uses thereof” (The Open University, priority 2001, dated 2009) come the findings set out here.

No end group written: not given here.

Type in all cases: in vivo, chick
The subject of data set [1] is chicks. Put plainly: β-amyloid 12-28 induced amnesia, passive avoidance task, strong training. The procedure: (§1) Commercially obtained Ross Chunky eggs were incubated and hatched in brooders and held until 16±6 hours old. Chicks were placed in pairs in small aluminium pens. Following an equilibration period of an hour, the chicks were pretrained and trained essentially as described by Lossner and Rose (J. Neurochem. 41, 1357-1363 (1983), the contents of which are incorporated herein by reference). Pretraining involved three 10 s presentations of a small (2 mm diameter) white bead, at approximately 5 minute intervals. […] Two training techniques were used: “strong” and “weak” training. In both, 5 to 10 minutes after the last pre-training trial, chicks were trained by a 10 s presentation of a 4 mm diameter chrome bead, which had been dipped in the bitter-tasting methylanthranilate. Control chicks pecked at a water-coated or dry bead. In the “strong” version of the task, 100% methylanthranilate was used. In the “weak” version, 10% methylanthranilate was used. Chicks spontaneously pecked at the training or control beads within 20 s. Chicks that peck at the bitter bead evinced a disgust reaction and would not normally peck at a similar, but dry bead for some hours subsequently. At various times following training chicks were tested, by offering them a dry 4 mm diameter chrome bead, followed 10 minutes later by a small (2 mm diameter) white bead, each for 20 to 30 s. Animals were tested by an experimenter blind as to which treatment each chick had received. Chicks are considered to remember the task if they avoid the chrome bead at test but peck at the white bead (discriminate), and to have forgotten it if they peck at both beads. Recall is calculated as a percent avoidance score (percentage of chicks which avoid the chrome bead) and as a discrimination score (percentage of chicks which avoid the chrome but peck at the white bead). […] Each chick was trained and tested only once and differences between groups tested for statistical significance by g-test described by Sokal and Rohlf (Biometry: the Principles and Practice of Statistics in Biological Research (2nd edition), W H Freeman, New York (1981)), the contents of which are incorporated herein by reference. The validity of this particular training task used to assess memory formation is extensively discussed by Andrew (Neural and Behavioural Plasticity: the Use of the Domestic Chick as a Model, Oxford University Press, Oxford, UK (1991), the contents of which are incorporated herein by reference.
(§2) Thus the learning experience is not committed to long-term memory. Agents that are memory enhancers can thus be tested. A memory enhancing agent, administered to a chick trained on the weak learning task, produces an increase in retention—increased avoidance of the chrome bead—at 24 hours. That is, such memory enhancers help convert weak to strong learning by enabling the transition from shorter to longer-term memory.
(§3) Bilateral intracranial injections ([…]) of either saline, or solutions in saline of different peptides (0.5 to 5 μg/hemisphere) homologous to different regions of the external domain of human APP were injected intracerebrally into a specific brain region, known to be required for memory formation (the intermediate hyperstriatum ventrale) at different time-points pre- or post-training using a […] fitted with a plastic sleeve to allow a penetration of 3 mm. After completion of the injection, the needle was kept in place for 5 s. Correct placement was ensured by using a specially designed headholder described by Davis et al (Physiol. Behav. 22, 177-184 (1979), the contents of which are incorporated herein by reference) and was routinely visually monitored postmortem. Peptides or other substances were administered at various times either before or after the training protocol. Chicks were tested at different time points post-training as described above.

Data set [2] concerns chicks. The experiment in a line: Memory enhancement on weak training (10% methylanthranilate), passive avoidance task. To be noted: for effect of differing doses on weak training (percent avoidance): 30 mins before training, RER 0.2, 1.0, 2.0 μg/hemisphere, Ac-RER 4.0, 6.0 μg/hemisphere. The method, then: as §1, §2
as §3, with “above. […]” for “above.”

Data set [3] concerns chicks. Put plainly: APP-antisense induced amnesia, passive avoidance task, strong training. To be noted: for effect on APP-antisense induced amnesia (percent avoidance): FIG. 5. The procedure:
Commercially obtained Ross Chunky eggs were incubated and hatched in brooders and held until 16±6 hours old. Chicks were placed in pairs in small aluminium pens. Following an equilibration period of an hour, the chicks were pretrained and trained essentially as described by Lossner and Rose (J. Neurochem. 41, 1357-1363 (1983), the contents of which are incorporated herein by reference). Pretraining involved three 10 s presentations of a small (2 mm diameter) white bead, at approximately 5 minute intervals. […] Two training techniques were used: “strong” and “weak” training. In both, 5 to 10 minutes after the last pre-training trial, chicks were trained by a 10 s presentation of a 4 mm diameter chrome bead, which had been dipped in the bitter-tasting methylanthranilate. Control chicks pecked at a water-coated or dry bead. In the “strong” version of the task, 100% methylanthranilate was used. In the “weak” version, 10% methylanthranilate was used. Chicks spontaneously pecked at the training or control beads within 20 s. Chicks that peck at the bitter bead evinced a disgust reaction and would not normally peck at a similar, but dry bead for some hours subsequently. At various times following training chicks were tested, by offering them a dry 4 mm diameter chrome bead, followed 10 minutes later by a small (2 mm diameter) white bead, each for 20 to 30 s. Animals were tested by an experimenter blind as to which treatment each chick had received. Chicks are considered to remember the task if they avoid the chrome bead at test but peck at the white bead (discriminate), and to have forgotten it if they peck at both beads. Recall is calculated as a percent avoidance score (percentage of chicks which avoid the chrome bead) and as a discrimination score (percentage of chicks which avoid the chrome but peck at the white bead). […]
as §3, with “After completion of the injection, the needle was kept in place for 5 s.” left out, “Peptides or other substances were administered at various times either before or after the training protocol. Chicks were tested at different time points post-training as described above.” left out

Data set [4] deals with chicks. Put plainly: anti-APP (mb22C11) induced amnesia, passive avoidance task. The settings on record: FIG. 4; mb22C11 30 minutes pretraining, peptide 5 minutes pretraining; memory tested 24 hours posttraining. The procedure:
Commercially obtained Ross Chunky eggs were incubated and hatched in brooders and held until 16±6 hours old. Chicks were placed in pairs in small aluminium pens. Following an equilibration period of an hour, the chicks were pretrained and trained essentially as described by Lossner and Rose (J. Neurochem. 41, 1357-1363 (1983), the contents of which are incorporated herein by reference). Pretraining involved three 10 s presentations of a small (2 mm diameter) white bead, at approximately 5 minute intervals. […] Two training techniques were used: “strong” and “weak” training. In both, 5 to 10 minutes after the last pre-training trial, chicks were trained by a 10 s presentation of a 4 mm diameter chrome bead, which had been dipped in the bitter-tasting methylanthranilate. Control chicks pecked at a water-coated or dry bead. In the “strong” version of the task, 100% methylanthranilate was used. In the “weak” version, 10% methylanthranilate was used. Chicks spontaneously pecked at the training or control beads within 20 s. Chicks that peck at the bitter bead evinced a disgust reaction and would not normally peck at a similar, but dry bead for some hours subsequently. […] Recall is calculated as a percent avoidance score (percentage of chicks which avoid the chrome bead) and as a discrimination score (percentage of chicks which avoid the chrome but peck at the white bead). […]

Where [5] appears, read: FIG. 10, 2 μg/hemisphere 20 mins prior to training after β-amyloid 12-28 (2 μg/hemisphere) 30 mins prior to training, measured 20 mins after administration.
Where [6] appears, read: FIGS. 7-9, peptide 30 minutes pretraining, memory tested 24 hours posttraining.
Setting [7] is: AS oligodeoxynucleotide 12 hours pretraining, peptide 30 minutes pretraining, strong learning task.

Regarding `CC(=O)NC(CCCNC(=N)N)C(=O)NC(CCC(=O)O)C(=O)OC(CCCNC(=N)N)C(=O)O` (centres unmarked) [Ac-RER], the “effect on β-amyloid 12-28 induced amnesia (percent avoidance)” value with chicks [1] (setting [5]) was “less than that of RER”; in the data set on chicks [1] (FIG. 10, 2 μg/hemisphere 20 mins prior to training after β-amyloid 12-28 (2 μg/hemisphere) 30 mins prior to training, measured 20 mins after administration, listed as AC-RER), “have the effect of restoring memory”; with chicks [1] (FIG. 13, 4 μg/hemisphere 60, 20 or 30 mins prior to training (before, after or together with β-amyloid 12-28 2 μg/hemisphere)) it was “has the effect of restoring memory”. Besides, the “stability after administration (indicated by FIG. 10 results)” value in the data set on chicks [1] (FIG. 10, inferred from memory-restorative effect compared with RER) is “more stable after administration”. The “effect on weak training (percent avoidance)” value is “has the effect of improving the memory of weakly trained chicks” with chicks [2] (FIG. 11, 2 μg/hemisphere 30 mins before training) and “still significant, although less than 30 minutes after administration” with chicks [2] (FIG. 11, 2 μg/hemisphere 60 mins before training). Besides, the “effect of differing doses on weak training (percent avoidance)” value with chicks [2] (FIG. 12) is listed as “have the effect of improving the memory of weakly-trained chicks”. In the data set with chicks [2] (FIG. 12, Ac-RER compared with RER), the “dose required to obtain a comparable effect on weak training” value is “higher doses of Ac-RER than of RER”. Besides, in the data set on chicks [2] (FIG. 12, inferred from the doses required), the “stability after administration (indicated by FIG. 12 results)” value is recorded as “more stable after administration than RER”.
On to AKERLEAKHRERMSQVM [APP 319-335], for which the “effect on APP-antisense induced amnesia (percent avoidance: total avoidance and discrimination)” value in the data set on chicks [3] (FIG. 6, AS oligodeoxynucleotide 12 hours pretraining, peptide 30 minutes pretraining, tested 30 minutes posttraining) was “can prevent antisense induced memory loss”. In addition, the “effect on weak training (percent avoidance)” value with chicks [2] (setting [6]) is “enhance memory at 24 hours”.
Turning to “AS oligodeoxynucleotide: 16-mer end-protected phosphodiester oligodeoxynucleotide 5′-CCC GAG GAC TGA GCC A-3′ (SEQ ID No: 21) against APP mRNA, antisense form (antisense CCCGAGGACTGAGCCA; end-protected phosphodiester DNA, nucleotides 2 and 13 modified, nature not given here) [reference compound]”, the “effect of oligodeoxynucleotide on memory (percent avoidance)” value with chicks [3] (FIG. 5a, 0.6 to 1.0 μg in 2 μl, 12 hours pretraining, strong learning task) is given as “had a significant effect of memory loss”.
In the case of Arg-Glu-Arg (RER), in the data set with chicks [1] (setting [5]), the “effect on β-amyloid 12-28 induced amnesia (percent avoidance)” value is “have the effect of restoring memory”. Moreover, the “effect of differing doses on weak training (percent avoidance)” value in the data set with chicks [2] (FIG. 12) is listed as “have the effect of improving the memory of weakly-trained chicks”. Further, the “effect on weak training (percent avoidance)” value with chicks [2] (setting [6]) is given as “enhances memory at 24 hours”.
Take Arg-Glu-Arg-Met-Ser (RERMS): the “effect on β-amyloid 12-28 induced amnesia (percent avoidance)” value in the data set on chicks [1] (FIG. 3, β-amyloid 12-28 30 minutes pretraining, peptide 20 minutes pretraining, memory tested 24 hours posttraining) is given as “memory retention is restored”. The “effect on APP-antisense induced amnesia (percent avoidance)” value with chicks [3] (setting [7]) is “avoided to a substantial extent”. Also, in the data set with chicks [2] (setting [6]), the “effect on weak training (percent avoidance)” value was “enhance memory at 24 hours”. Besides, in the data set on chicks [4], the “effect on anti-APP induced amnesia (percent avoidance)” value is “will prevent antibody induced memory loss”.
As for “Arg-Ser-Ala-Glu-Arg (RSAER) [reference compound]”, in the data set with chicks [3] (setting [7]), the “effect on APP-antisense induced amnesia (percent avoidance)” value is “absent”.
